Series [1] deals with PC12 cells. Nature of the series: MTT cell viability of corticosterone (CORT)-induced PC12 cells (in vitro depression model). As to conditions: for Cell viability (%): PC12 cells pretreated with 600 μM corticosterone 24 h; for Cell viability (%) / viability at 0.625 µM / Culture time needed to exert effect on cell survival: drug 0.625 uM; for Cell viability (%) / viability at 0.625 µM: 24 h culture, average of three independent experiments; for Cell viability (%) / viability at 0.625 µM / Effect on death rate of cells caused by CORT (cell survival rate): MTT; for viability at 0.625 µM: PC-12, read-out: Cell viability (%), PC12 cells pretreated with 600 μM corticosterone 24 h; for Effect on death rate of cells caused by CORT (cell survival rate): 0.625-20 uM at 12 h, 0.625 uM at 12, 24, 48 h, A and B of FIG. 2; for Culture time needed to exert effect on cell survival: B of FIG. 2. How it is done:
PC12 cells are purchased from Procell Life Science & Technology Co., Ltd. (Wuhan, China). All cell culture reagents are purchased from Life Technologies (Grand Island, Nebraska, USA). Cells are cultured in Dulbecco's modified Eagle's medium (Gibco, USA) including 10% fetal calf serum (Gibco, USA) at 37° C. in an incubator including 5% CO2.
Corticosterone (CORT)-induced PC12 cells are usually used to establish the depression model in vitro.
Cell viability is measured by using MTT [3-(4,5-dimethyl-2-thiazolyl)-2,5-diphenyl-2H-tetrazolium bromide].

For another series, the system named is NF-κB. Nature of the series: Western blotting of NF-κB in CORT-treated PC12 cells. The series is classed as cell-based. As to conditions: Western blot; 0.625 uM; A and B of FIG. 3. How it is done:
(§1) PC12 cells are lysed in RIPA lysis solution including 1% phenylmethylsulfonyl fluoride (PMSF) on ice for 30 minutes, the supernatant solution is collected and centrifuged, and the protein concentration of the supernatant solution is measured by a BCA assay kit (Beyotime, Shanghai). Protein samples are loaded onto 10% SDS-polyacrylamide gel electrophoresis and then further transferred to PVDF membrane (Millipore, MA, USA). The PVDF membrane is blocked with 5% non-fat milk and then incubated with a single primary antibody at 4° C. overnight. After washing with Tris-buffered saline containing Tween-20 (0.1%) (TBST), the PVDF membrane is incubated with secondary antibodies at room temperature. The PVDF membrane is analyzed by ECL reagents (Beyotime, Shanghai) and a BIO-RAD ChemiDoc XRS system. Protein band intensity is performed by Image J software (The National Institutes of Health, Bethesda, MD, USA).
(A western blot detects proteins with antibodies after separation by electrophoresis.)

A further series relates to GR. Nature of the series: Western blotting of GR in CORT-treated PC12 cells. The series is classed as cell-based. As to conditions: Western blot; 0.625 uM; A and B of FIG. 3. Here is the method:
as §1

Series [2] deals with PC12 cells. Kind of series: Hoechst and PI staining of PC12 cell apoptosis. The series is classed as cell-based. As to conditions: drug 1.0 uM, 48 hours. How it is done:
PC12 cell apoptosis is detected by Hoechst and PI staining. Hoechst can bind to cell nucleus of living cells, while PI (propidium iodide) can bind to the nucleuses of dead cells. The PC12 cells are plated in 12-well plates, and after being treated with drugs for 48 hours, the PC12 cells are stained with the nuclear dye Hoechst. The PC12 cells are washed twice with PBS and continued to be incubated with 10 mg/L Hoechst in the incubator for 20 min, For PI staining, the PC12 cells are incubated with a working solution including PI (final concentration 1 μg/mL) at room temperature for 10 min […] The PC12 cells are observed and photographed by a fluorescence microscope (Zeiss, Germany), and the results are shown in FIGS. 2 and 3. Blue fluorescence (white background) represents living cells, and red fluorescence (black background) represents dead cells.

The next series has as its system cofilin-1. Kind of series: Western blotting of cofilin-1 in CORT-treated PC12 cells. The series is classed as cell-based. As to conditions: Western blot; 0.625 uM; A and B of FIG. 3. Here is the method: as §1

As usually defined, the viability is a read-out of living cells in per cent, often relative to untreated cells. The melting point is the temperature of the solid-liquid transition.

On to `C=C[C@@H]1CN(Cc2ccccc2)C(=O)c2cnc(N3CCOCC3)nc2N1c1ccccc1` [(R)-I-1, (R)-6-benzyl-2-morpholino-9-phenyl-8-vinyl-6,7,8,9-tetrahydro-5H-pyrimido [4,5-e][1,4]diazapine-5-one], for which, in the series with PC12 cells [1], the “Cell viability (%)” value was found to be 82.8 ± 2.5%.
In the case of `C=C[C@@H]1CN(Cc2ccccc2)C(=O)c2cnc(N3CCOCC3)nc2N1Cc1ccccc1` [(R)-I-8, (R)-6,9-dibenzyl-2-morpholinyl-8-vinyl-6,7,8,9-tetrahydro-5H-pyrimido[4,5-e][1.4]diazepine-5-one], the “Cell viability (%)” value in the series on PC12 cells [1] was found to be 82.0 ± 2.0%.
For the compound `C=C[C@@H]1CN(Cc2ccccc2)C(=O)c2cnc(OC)nc2N1c1ccccc1` [(R)-I-9, (R)-6-benzyl-2methoxy-9-phenyl-8-vinyl-6,7,8,9-tetrahydro-5H-pyrimido[4,5-e][1,4]diazepin-5-one], the “Overexpression of NF-κB” value in the series with NF-κB was “inhibit the overexpression”. In addition, the “Expression of GR” value in the series with GR is listed as “promote the expression of GR”. Further, the “PC12 cell death / apoptosis caused by corticosterone (blue and red fluorescence number)” value (from here on “PC12 cell death / apoptosis caused”) in the series with PC12 cells [2] is “can reverse the massive apoptosis of the PC12 cells caused by corticosterone”. The viability at 0.625 µM in the series with PC12 cells [1] (Rattus norvegicus) stood at 85.4 ± 2.9%. In addition, in the series on cofilin-1, the “Overexpression of cofilin-1” value was “inhibit the overexpression”.
`C=C[C@@H]1CN(Cc2ccccc2)C(=O)c2cnc(-c3ccccc3)nc2N1c1ccccc1` [(R)-I-13, (R)-6-benzyl-2,9-diphenyl-8-vinyl-6,7,8,9-tetrahydro-5H-pyrimido[4,5-e][1,4]diazepine-5-one] gave a melting point of 212.7 to 213.6 °C. Further, the viability at 0.625 µM in the series on PC12 cells [1] (Rattus norvegicus) was 81.9 ± 4.5%.
On the same counts, the results for `C=C[C@@H]1CN(Cc2ccccc2)C(=O)c2cnc(Nc3ccccc3)nc2N1c1ccccc1` [(R)-I-18, (R)-6-benzyl-9-phenyl-2-anilino-8-vinyl-6,7,8,9-tetrahydro-5H-pyrimido[4,5-e][1,4]diazepine-5-one] are 232.1 to 232.3 °C and 75.2 ± 4.4%.
Take `C=C[C@H]1CN(Cc2ccccc2)C(=O)c2cnc(N3CCOCC3)nc2N1CCC` [(S)-I-5, (S)-6-benzyl-2-morpholino-9-propyl-8-vinyl-6,7,8,9-tetrahydro-5H-pyrimido[4,5-e][1,4]diazepine-5-one]: in the series on PC12 cells [1] (Rattus norvegicus), the viability at 0.625 µM turned out to be 89.4 ± 2.9%.
`C=C[C@H]1CN(Cc2ccccc2)C(=O)c2cnc(C)nc2N1c1ccccc1` [(S)-I-10, (S)-6-benzyl-2-methyl-9-phenyl-8-vinyl-6,7,8,9-tetrahydro-5H-pyrimido[4,5-e][1,4]diazepin-5-one]: the “PC12 cell death / apoptosis caused” value with PC12 cells [2] is “higher number of blue fluorescence than (R)-I-9”. Besides, the viability at 0.625 µM with PC12 cells [1] (Rattus norvegicus) turned out to be 97.8 ± 3.4%.
Regarding `C=C[C@H]1CN(Cc2ccccc2)C(=O)c2cnc(N3CCN(C)CC3)nc2N1c1ccccc1` [(S)-I-11, (S)-6-benzyl-2-(4-methyl-1-piperazinyl)-9-phenyl-8-vinyl-6,7,8,9-tetrahydro-5H-pyrimido[4,5-e]diazepine-5-one], the “PC12 cell death / apoptosis caused” value in the series on PC12 cells [2] is given as “can reduce cell death”. Also, in the series with PC12 cells [1], the “Effect on death rate of cells caused by CORT (cell survival rate)” value is on record as “can effectively reduce the death rate of cells caused by CORT” and the “Culture time needed to exert effect on cell survival” value was 12 h.
`C=C[C@H]1CN(Cc2ccccc2)C(=O)c2cnc(N3CCCC3)nc2N1c1ccccc1` [(S)-I-12, (S)6-benzyl-9-phenyl-2-(1-tetrahydropyrrolyl)-8-vinyl-6,7,8,9-tetrahydro-5H-pyrimido[4,5-e][1,4]diazepin-5-one] registered a melting point of 153.8 to 154.3 °C. The viability at 0.625 µM in the series on PC12 cells [1] (Rattus norvegicus) stood at 98.6 ± 3.1%.
Consider `C=C[C@H]1CN(Cc2ccccc2)C(=O)c2cnc(-c3cccc4ccccc34)nc2N1c1ccccc1` [(S)-I-14, (S)-6-benzyl-2-(1-naphthyl)-9-phenyl-8-vinyl-6,7,8,9-tetrahydro-5H-pyrimido[4,5-e][1,4]diazepin-5-one], for which the melting point lay in the range of 227.2 to 227.4 °C. In the series with PC12 cells [1] (0.625 uM, B, C and D of FIG. 4), the “Survival rate of PC12 cells, comparison of chiral configurations” value is given as “can increase the survival rate better than their corresponding racemates”. Besides, the viability at 0.625 µM in the series on PC12 cells [1] (Rattus norvegicus) is 88.1 ± 4.7%.
On to `C=C[C@H]1CN(Cc2ccccc2)C(=O)c2cnc(-c3cnccc3OC)nc2N1c1ccccc1` [(S)-I-17, (S)-6-benzyl-2-(4-methoxy-3-pyridyl)-9-phenyl-8-vinyl-6,7,8,9-tetrahydro-5H-pyrimido[4,5-e][1,4]diazepin-5-one], for which, in the series on NF-κB, the “Overexpression of NF-κB” value is on record as “inhibit the overexpression”. The “Expression of GR” value with GR is recorded as “promote the expression of GR”. Further, the “PC12 cell death / apoptosis caused” value in the series with PC12 cells [2] was “can reverse the massive apoptosis of the PC12 cells caused by corticosterone”. Moreover, the viability at 0.625 µM in the series on PC12 cells [1] (Rattus norvegicus) is 96.9 ± 2.7%. In the series with cofilin-1, the “Overexpression of cofilin-1” value is “inhibit the overexpression”.
With `C[C@]12C[C@H](O)[C@H]3[C@@H](CCC4=CC(=O)CC[C@@]43C)[C@@H]1CC[C@@H]2C(=O)CO` [CORT, corticosterone, reference compound], the “Cell viability (%) with corticosterone alone” value in the series on PC12 cells [1] (PC12 cells, 600 μM corticosterone, 24 hours, no drug (model group)) was 60.5 ± 3.6%. Besides, in the series on PC12 cells [1] (Rattus norvegicus, PC-12, 24 h, read-out: Cell viability (%) with corticosterone alone, PC12 cells, 600 μM corticosterone, 24 hours, no drug (model group)), the viability at 600 µM stood at 60%.
With `C=C[C@@H]1CN(Cc2ccccc2)C(=O)c2cnc(-c3ccco3)nc2N1c1ccccc1` [Compound I-16, (R)-6-benzyl-2-(2-furyl)-9-phenyl-8-vinyl-6,7,8,9-tetrahydro-5H-pyrimido[4,5-e][1,4]diazepin-5-one], the melting point is 178.5 to 178.6 °C.
For `CNCCC(Oc1ccc(C(F)(F)F)cc1)c1ccccc1` (stereo not drawn) [fluoxetine, reference compound], in the series with GR, the “Expression of GR” value is recorded as “promote the expression of GR”. In addition, the “PC12 cell death / apoptosis caused” value with PC12 cells [2] is “can reduce cell death”. Besides, in the series on PC12 cells [1], the “Effect on death rate of cells caused by CORT (cell survival rate)” value was “can effectively reduce the death rate of cells caused by CORT” and the “Culture time needed to exert effect on cell survival” value amounted to 48 h. Moreover, in the series with PC12 cells [1] (Rattus norvegicus), the viability at 0.625 µM worked out at 76.8 ± 6.4%. For the same compound, in the series on cofilin-1, the “Overexpression of cofilin-1” value was “inhibit the overexpression”.
